Assay results taken from PubChem BioAssay (NCI).
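Values below derive from 48-hour exposures of cells grown in 96-well plates, with endpoints linearly interpolated between the two concentrations bracketing the appropriate inhibition level. TGI denotes the concentration required for complete inhibition of growth.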

How the values were obtained:
Assay in all cases: NCI anticancer screen, dose series, 48 h
DMS 114 small cell lung = system: DMS 114 small cell lung
HL-60(TB) leukemia = system: HL-60(TB) leukemia
EKVX NSCLC = system: EKVX NSCLC
SK-MEL-2 melanoma = system: SK-MEL-2 melanoma
KM20L2 colon = system: KM20L2 colon
M19-MEL melanoma = system: M19-MEL melanoma
HOP-62 NSCLC = system: HOP-62 NSCLC
SN12C renal = system: SN12C renal
CAKI-1 renal = system: CAKI-1 renal
SF-539 CNS = system: SF-539 CNS
HCT-15 colon = system: HCT-15 colon
UACC-62 melanoma = system: UACC-62 melanoma
NCI-H460 lung = system: NCI-H460 lung
SNB-19 CNS = system: SNB-19 CNS
CCRF-CEM leukemia = system: CCRF-CEM leukemia
SNB-75 CNS = system: SNB-75 CNS
HOP-18 NSCLC = system: HOP-18 NSCLC
SNB-78 CNS = system: SNB-78 CNS
K-562 leukemia = system: K-562 leukemia
OVCAR-8 ovarian = system: OVCAR-8 ovarian

Question: What does the source list for `NC(CSCSCC(N)C(=O)O)C(=O)O` (stereo unspecified)?
Answer: TGI (DMS 114 small cell lung): > 225 µM; TGI (HL-60(TB) leukemia): > 225 µM; TGI (EKVX NSCLC): > 225 µM; TGI (SK-MEL-2 melanoma): > 225 µM; TGI (KM20L2 colon): > 225 µM; TGI (M19-MEL melanoma): > 225 µM; TGI (HOP-62 NSCLC): > 225 µM; TGI (SN12C renal): > 225 µM; TGI (CAKI-1 renal): > 225 µM; TGI (SF-539 CNS): > 225 µM; TGI (HCT-15 colon): > 225 µM; TGI (UACC-62 melanoma): > 225 µM; TGI (NCI-H460 lung): > 225 µM; TGI (SNB-19 CNS): > 225 µM; TGI (CCRF-CEM leukemia): > 71.2 µM; TGI (SNB-75 CNS): > 225 µM; TGI (HOP-18 NSCLC): > 225 µM; TGI (SNB-78 CNS): > 104 µM; TGI (K-562 leukemia): > 225 µM; TGI (OVCAR-8 ovarian): > 22.5 µM

Question: What does the source list for `CC(C)(C)CI`?
Answer: TGI (DMS 114 small cell lung): 48.3 µM; TGI (HL-60(TB) leukemia): 50.4 µM; TGI (EKVX NSCLC): > 100 µM; TGI (SK-MEL-2 melanoma): 37.6 µM; TGI (KM20L2 colon): > 100 µM; TGI (M19-MEL melanoma): 53.9 µM; TGI (SN12C renal): 32.4 µM; TGI (SF-539 CNS): > 100 µM; TGI (HCT-15 colon): > 100 µM; TGI (UACC-62 melanoma): > 100 µM; TGI (NCI-H460 lung): 81.2 µM; TGI (SNB-19 CNS): 89.1 µM; TGI (CCRF-CEM leukemia): 50.8 µM; TGI (SNB-75 CNS): 67.6 µM; TGI (HOP-18 NSCLC): > 10 µM; TGI (SNB-78 CNS): 79.4 µM; TGI (K-562 leukemia): 58.4 µM; TGI (OVCAR-8 ovarian): > 10 µM

Question: Which TGI (HL-60(TB) leukemia) does the source give for `COc1ccc(-c2c3c(nc4nc(SCC(=O)c5ccc(Br)cc5)nc(N)c24)CCCC3)cc1OC` here?
Answer: > 100 µM

Question: And the TGI (EKVX NSCLC)?
Answer: > 100 µM

Question: What about the TGI (HOP-62 NSCLC) of the same compound?
Answer: > 100 µM

Question: And the TGI (SN12C renal)?
Answer: > 100 µM

Question: And the TGI (CAKI-1 renal)?
Answer: > 100 µM

Question: What about the TGI (SF-539 CNS) of the same compound?
Answer: > 100 µM

Question: And the TGI (HCT-15 colon)?
Answer: > 100 µM

Question: What about the TGI (UACC-62 melanoma) of the same compound?
Answer: > 100 µM

Question: And the TGI (NCI-H460 lung)?
Answer: > 100 µM

Question: And the TGI (SNB-19 CNS)?
Answer: > 100 µM

Question: And the TGI (CCRF-CEM leukemia)?
Answer: > 100 µM

Question: And the TGI (SNB-75 CNS)?
Answer: 28.1 µM

Question: And the TGI (K-562 leukemia)?
Answer: > 100 µM

Question: And the TGI (OVCAR-8 ovarian)?
Answer: > 100 µM

Question: Which TGI (DMS 114 small cell lung) does the source give for `O=C1CCC2COc3ccc(O)c1c32` (stereo unspecified) here?
Answer: > 100 µM

Question: And the TGI (HL-60(TB) leukemia)?
Answer: > 100 µM

Question: And the TGI (EKVX NSCLC)?
Answer: > 100 µM

Question: And the TGI (KM20L2 colon)?
Answer: > 100 µM

Question: What about the TGI (M19-MEL melanoma) of the same compound?
Answer: > 100 µM

Question: And the TGI (SN12C renal)?
Answer: > 100 µM

Question: And the TGI (CAKI-1 renal)?
Answer: > 100 µM

Question: What about the TGI (SF-539 CNS) of the same compound?
Answer: > 100 µM

Question: And the TGI (HCT-15 colon)?
Answer: > 100 µM

Question: What about the TGI (UACC-62 melanoma) of the same compound?
Answer: > 100 µM

Question: And the TGI (NCI-H460 lung)?
Answer: > 100 µM

Question: And the TGI (SNB-19 CNS)?
Answer: 95.9 µM

Question: What about the TGI (CCRF-CEM leukemia) of the same compound?
Answer: > 100 µM

Question: And the TGI (SNB-75 CNS)?
Answer: > 100 µM

Question: What about the TGI (HOP-18 NSCLC) of the same compound?
Answer: > 100 µM

Question: And the TGI (SNB-78 CNS)?
Answer: > 100 µM

Question: What about the TGI (K-562 leukemia) of the same compound?
Answer: > 100 µM

Question: And the TGI (OVCAR-8 ovarian)?
Answer: > 100 µM

Question: What does the source list for `O=C1OC(c2ccccc2Br)=N/C1=C/c1ccccc1`?
Answer: TGI (HL-60(TB) leukemia): > 100 µM; TGI (EKVX NSCLC): > 100 µM; TGI (SK-MEL-2 melanoma): 41.7 µM; TGI (HOP-62 NSCLC): 49.4 µM; TGI (CAKI-1 renal): > 100 µM; TGI (SF-539 CNS): 37.9 µM; TGI (HCT-15 colon): > 100 µM; TGI (UACC-62 melanoma): > 100 µM; TGI (NCI-H460 lung): > 100 µM; TGI (SNB-19 CNS): 96.8 µM; TGI (CCRF-CEM leukemia): > 100 µM; TGI (SNB-75 CNS): > 100 µM; TGI (K-562 leukemia): > 100 µM; TGI (OVCAR-8 ovarian): 59.6 µM

Question: What does the source list for `COc1nc(NC2OC(CO)C(O)C(O)C2O)c(N)c(=O)[nH]1` (stereo unspecified)?
Answer: TGI (DMS 114 small cell lung): > 100 µM; TGI (HL-60(TB) leukemia): > 100 µM; TGI (EKVX NSCLC): > 100 µM; TGI (SK-MEL-2 melanoma): > 100 µM; TGI (KM20L2 colon): > 100 µM; TGI (M19-MEL melanoma): > 100 µM; TGI (HOP-62 NSCLC): > 100 µM; TGI (SN12C renal): > 100 µM; TGI (SF-539 CNS): > 100 µM; TGI (HCT-15 colon): > 100 µM; TGI (UACC-62 melanoma): > 100 µM; TGI (NCI-H460 lung): > 100 µM; TGI (SNB-19 CNS): > 100 µM; TGI (CCRF-CEM leukemia): > 100 µM; TGI (SNB-75 CNS): > 100 µM; TGI (HOP-18 NSCLC): > 100 µM; TGI (SNB-78 CNS): > 100 µM; TGI (K-562 leukemia): > 100 µM; TGI (OVCAR-8 ovarian): > 100 µM

Question: For `O=c1oc2ccccc2n1P(=O)(Oc1ccc(Cl)cc1)n1c(=O)oc2ccccc21`, which TGI (DMS 114 small cell lung) is on record?
Answer: > 100 µM

Question: And the TGI (HL-60(TB) leukemia)?
Answer: > 100 µM

Question: And the TGI (EKVX NSCLC)?
Answer: > 100 µM

Question: And the TGI (SK-MEL-2 melanoma)?
Answer: > 100 µM

Question: What about the TGI (KM20L2 colon) of the same compound?
Answer: > 100 µM

Question: What about the TGI (M19-MEL melanoma) of the same compound?
Answer: > 100 µM

Question: And the TGI (HOP-62 NSCLC)?
Answer: > 100 µM

Question: And the TGI (SN12C renal)?
Answer: > 100 µM

Question: What about the TGI (CAKI-1 renal) of the same compound?
Answer: > 100 µM

Question: And the TGI (SF-539 CNS)?
Answer: > 100 µM

Question: What about the TGI (UACC-62 melanoma) of the same compound?
Answer: > 100 µM

Question: And the TGI (SNB-19 CNS)?
Answer: > 100 µM

Question: And the TGI (CCRF-CEM leukemia)?
Answer: > 100 µM

Question: And the TGI (SNB-75 CNS)?
Answer: > 100 µM

Question: What about the TGI (HOP-18 NSCLC) of the same compound?
Answer: > 100 µM

Question: What about the TGI (SNB-78 CNS) of the same compound?
Answer: > 100 µM

Question: What about the TGI (K-562 leukemia) of the same compound?
Answer: > 100 µM

Question: What about the TGI (OVCAR-8 ovarian) of the same compound?
Answer: > 100 µM

Question: Which TGI (DMS 114 small cell lung) does the source give for `CC1OC(CO)(n2cnc3c(N)ncnc32)C(O)C1O` (stereo unspecified) here?
Answer: > 100 µM

Question: What about the TGI (HL-60(TB) leukemia) of the same compound?
Answer: > 100 µM

Question: What about the TGI (EKVX NSCLC) of the same compound?
Answer: > 100 µM

Question: What about the TGI (SK-MEL-2 melanoma) of the same compound?
Answer: > 100 µM

Question: What about the TGI (KM20L2 colon) of the same compound?
Answer: > 100 µM

Question: And the TGI (M19-MEL melanoma)?
Answer: > 100 µM

Question: What about the TGI (HOP-62 NSCLC) of the same compound?
Answer: > 100 µM

Question: What about the TGI (SN12C renal) of the same compound?
Answer: > 100 µM

Question: And the TGI (CAKI-1 renal)?
Answer: > 100 µM

Question: And the TGI (SF-539 CNS)?
Answer: > 100 µM

Question: And the TGI (HCT-15 colon)?
Answer: > 100 µM

Question: What about the TGI (UACC-62 melanoma) of the same compound?
Answer: > 100 µM

Question: And the TGI (NCI-H460 lung)?
Answer: > 100 µM

Question: What about the TGI (SNB-19 CNS) of the same compound?
Answer: > 100 µM

Question: What about the TGI (CCRF-CEM leukemia) of the same compound?
Answer: > 100 µM

Question: What about the TGI (SNB-75 CNS) of the same compound?
Answer: > 100 µM

Question: And the TGI (HOP-18 NSCLC)?
Answer: > 100 µM

Question: What about the TGI (SNB-78 CNS) of the same compound?
Answer: > 100 µM

Question: And the TGI (K-562 leukemia)?
Answer: > 100 µM

Question: And the TGI (OVCAR-8 ovarian)?
Answer: > 100 µM
